What was measured:
Assay in all cases: relative viability (nuclei count vs DMSO), 5 days (fraction); higher = more cells survive
Ibrutinib + Alpelisib = compound: C=CC(=O)N1CCC[C@@H](n2nc(-c3ccc(Oc4ccccc4)cc3)c3c(N)ncnc32)C1 [Ibrutinib] + Cc1nc(NC(=O)N2CCC[C@H]2C(N)=O)sc1-c1ccnc(C(C)(C)C(F)(F)F)c1 [Alpelisib] (partner 2 µM)
Procedure, shortened: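 Nuclei were stained with Hoechst during a one-step fixation (final 0.05% Triton X-100, 1% formaldehyde, 1 ug/ml Hoechst) carried out 5 days after dosing, then counted on 4× images. The cells, lung cancer lines in 1536-well plates, had been dosed by pin tool the day after seeding with one drug alone or a fixed anchor-drug dose plus five library-drug doses (not always all listed) in √10 steps. Relative viability is the nuclei count in treated wells divided by that in vehicle wells, and each value is the median of duplicate plates.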

PAC-1 = compound: C=CCc1cccc(/C=N/NC(=O)CN2CCN(Cc3ccccc3)CC2)c1O [PAC-1]
Procedure, shortened: (§1)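 Following overnight incubation at 37 °C, lung cancer cell lines in 1536-well plates were pinned with five library-drug doses (not always all listed) in √10 steps on vehicle-anchored plates. The cells then spent 5 days without medium change before a combined fix, permeabilisation and Hoechst stain, 4× imaging and MetaXpress nuclear counts. Viability is the treated-to-vehicle ratio of nuclei, taken as the median across plates. Only plates with control CV below 25% and at least one doubling passed.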

Ibrutinib = compound: C=CC(=O)N1CCC[C@@H](n2nc(-c3ccc(Oc4ccccc4)cc3)c3c(N)ncnc32)C1 [Ibrutinib]
Procedure, shortened: as §1

BMX-IN-1 = compound: C=CC(=O)Nc1cc(-n2c(=O)ccc3cnc4ccc(-c5ccc(NS(C)(=O)=O)cc5)cc4c32)ccc1C [BMX-IN-1]
Procedure, shortened: as §1

Cell Line	relative viability (Ibrutinib + Alpelisib; first compound 0.01581 µM)	relative viability (Ibrutinib + Alpelisib; first compound 0.05 µM)	relative viability (Ibrutinib + Alpelisib; first compound 0.1581 µM)	relative viability (Ibrutinib + Alpelisib; first compound 0.5 µM)	relative viability (PAC-1; 0.02 µM)	relative viability (PAC-1; 0.06325 µM)	relative viability (PAC-1; 0.2 µM)	relative viability (PAC-1; 2 µM)	relative viability (Ibrutinib; 0.005 µM)	relative viability (Ibrutinib; 0.01581 µM)	relative viability (Ibrutinib; 0.05 µM)	relative viability (Ibrutinib; 0.1581 µM)	relative viability (Ibrutinib; 0.5 µM)	relative viability (BMX-IN-1; 0.02 µM)	relative viability (BMX-IN-1; 0.2 µM)	relative viability (BMX-IN-1; 0.6325 µM)	relative viability (BMX-IN-1; 2 µM)	relative viability (Ibrutinib + Alpelisib; first compound 0.005 µM)
NCI-H1915	1	1.06	1.07	1.05	0.955	0.981	0.934	1.07	0.96	0.971	1.01	0.978	1.05	1.08	1.06	1.07	1.08	–
NCI-H2023	0.574	0.492	0.66	0.568	0.973	0.919	0.905	1.01	0.89	0.849	0.891	1.03	0.943	1.37	1.19	1.13	1.08	0.567
NCI-H1755	0.893	1.03	0.981	0.932	1.02	0.958	0.963	0.995	0.988	1.03	1.02	0.994	0.969	1.01	1.1	1.08	0.984	0.939
EPLC-272H	1.02	0.836	0.848	0.759	0.877	1.04	0.941	0.929	0.681	0.859	0.677	0.686	0.664	1.01	0.954	0.874	0.952	–
NCI-H1793	0.635	0.605	0.587	0.575	0.847	0.934	0.872	1.01	–	0.831	0.732	0.631	0.538	1.13	0.995	1.13	1.05	–
NCI-H358	0.603	0.504	0.887	0.36	0.921	0.848	0.905	0.789	0.637	0.713	0.611	0.786	0.47	1.12	0.962	1.04	0.914	0.817
HCC-827	0.819	0.901	0.992	0.278	1.08	1.04	1.07	1.03	–	1.01	1.08	1.02	0.868	1.05	1.06	1.09	1.04	0.952
NCI-H2085	0.893	0.862	0.977	0.743	1.05	1.02	0.989	0.98	0.997	0.974	0.902	0.882	0.905	1.03	0.997	1	1.01	0.965
LCLC-97TM1	0.3	0.335	0.269	0.255	0.897	1.16	0.807	0.937	1.11	0.888	0.906	0.85	0.909	1.04	1.11	1.12	1.02	0.241
EKVX	0.776	0.829	0.799	0.562	1.02	0.977	0.934	0.98	0.955	0.95	0.901	0.849	0.584	1.02	0.944	1.02	1.01	–
PC-14	0.954	0.909	1.05	0.632	1.03	1.03	0.995	0.988	1.08	0.918	0.952	1.02	0.571	1.12	1.06	1.22	1	0.974
NCI-H1355	0.704	0.782	0.887	0.646	0.983	1.02	0.968	1.06	–	0.975	1.02	0.826	0.843	1.03	1.06	1.11	1.12	–
NCI-H1792	0.698	0.764	0.782	0.65	0.951	0.991	0.996	0.95	–	1.06	0.925	0.567	0.762	1.03	1.2	1.5	0.991	0.716
NCI-H2009	1.12	1.16	1.15	1.16	0.978	1.03	0.94	0.99	1.14	0.971	0.978	0.962	1.09	1.08	1.07	1.09	1.02	1.24
HARA	0.763	0.681	0.974	0.332	0.98	1.08	0.905	1.03	0.976	0.965	0.689	0.793	0.457	1.05	1.04	1.08	1.08	0.903
H3255	0.699	0.474	1.05	0.214	1.07	1.01	0.942	0.909	0.912	0.858	0.745	0.945	0.547	1.08	0.974	1.12	1.02	0.555
SW 1573	0.807	0.844	0.749	0.811	0.965	1.03	1.01	1.15	0.912	0.924	–	0.94	0.974	1.13	1.08	1.09	0.904	0.632
NCI-H1299	1.01	1.03	1.06	1.06	1.03	0.979	1	1.01	1.02	1.01	1.05	1.01	1.05	1.09	1.08	1.07	1.06	1.08

Cell Line	relative viability (Ibrutinib + Alpelisib; first compound 0.01581 µM)	relative viability (Ibrutinib + Alpelisib; first compound 0.05 µM)	relative viability (Ibrutinib + Alpelisib; first compound 0.1581 µM)	relative viability (Ibrutinib + Alpelisib; first compound 0.5 µM)	relative viability (PAC-1; 0.02 µM)	relative viability (PAC-1; 0.06325 µM)	relative viability (PAC-1; 0.2 µM)	relative viability (PAC-1; 2 µM)	relative viability (Ibrutinib; 0.005 µM)	relative viability (Ibrutinib; 0.01581 µM)	relative viability (Ibrutinib; 0.05 µM)	relative viability (Ibrutinib; 0.1581 µM)	relative viability (Ibrutinib; 0.5 µM)	relative viability (BMX-IN-1; 0.02 µM)	relative viability (BMX-IN-1; 0.2 µM)	relative viability (BMX-IN-1; 0.6325 µM)	relative viability (BMX-IN-1; 2 µM)	relative viability (Ibrutinib + Alpelisib; first compound 0.005 µM)
EBC-1	0.856	0.79	0.936	0.895	1.04	0.932	0.949	1	1.09	0.947	0.922	0.97	1.06	1.06	0.952	1.14	0.964	0.852
NCI-H1666	0.726	–	1.11	0.426	1.01	1.01	1	1.04	1.03	0.984	0.851	0.965	0.867	1.05	1.06	1.11	1.1	0.677
NCI-H1993	0.715	0.613	–	0.742	0.911	0.986	0.891	0.963	0.617	0.822	–	0.733	0.61	1.01	1.09	0.973	0.882	0.644
HCC-366	0.496	0.372	0.414	0.466	0.997	0.979	1.02	1.03	1	0.962	0.968	0.913	1	1.13	1.09	1.05	1.04	0.459
EMC-BAC-2	0.697	0.75	0.741	0.547	0.998	1.02	1.09	0.97	0.897	1.01	0.739	–	0.96	1	1.13	1.07	0.95	0.728
NCI-H1975	0.418	0.475	0.634	0.212	0.97	0.957	0.994	1.08	0.906	0.781	0.827	0.91	0.419	1.17	0.965	1.14	0.872	0.594
NCI-H1944	0.685	0.784	0.755	0.521	0.964	0.947	0.902	1.02	0.887	0.851	0.858	0.772	0.832	1.07	1.08	1.18	0.947	0.659
IA-LM	0.732	0.682	0.658	1	1.09	1.05	0.89	1.03	0.794	1	1.06	1.05	1.04	1	0.997	1.04	1.02	0.826
NCI-H1395	0.988	1.35	1.16	0.997	1.02	0.928	0.872	0.911	0.763	1.04	0.855	0.713	0.957	1.01	0.951	0.97	0.892	0.997
NCI-H650	1	–	1.26	1.13	0.976	0.966	0.891	0.872	0.772	0.991	0.802	1.05	1.01	0.905	1.01	1.02	0.951	–
NCI-H1437	0.937	1.01	0.988	1.03	0.988	1.01	0.96	0.814	0.957	0.975	0.981	0.974	1.02	1.11	0.984	1.03	1.03	0.958
NCI-H2347	1.1	0.933	1.01	1.12	1.01	1.02	0.979	1.05	1.01	1.06	1.02	0.812	1.04	1.04	0.967	1.14	1.09	1
NCI-H520	0.797	1.04	1.09	0.759	0.964	0.957	0.899	0.99	0.874	0.791	0.991	1	0.839	1.26	1.02	1.1	1.04	0.892
NCI-H1563	0.883	0.882	1.09	0.946	0.953	1.03	1.04	0.94	0.922	0.893	1	0.977	0.861	0.955	0.943	1.04	0.964	1
COR-L23	0.702	0.73	0.775	0.865	1.09	1	0.9	1	1.09	0.967	1.03	1.03	1.18	1.35	1.16	1.17	1.07	0.947
A549	0.681	0.634	0.854	0.761	0.994	0.962	0.943	0.96	0.884	0.891	1	0.988	0.935	1.17	1.17	1.05	1.07	0.624
NCI-H2405	0.713	0.83	–	0.706	1.04	1	1.01	1.09	0.924	–	0.832	0.713	0.973	0.982	1.01	1.09	1.04	0.706
A-427	1.08	1.11	1.09	1.14	1.01	1.04	0.976	0.97	0.9	0.969	0.953	0.951	0.98	1.08	1.12	1.17	1.03	1.06

Source: the supplement of paper PMC10307832
